US12129257B1, “Imidazo[1,2-a]pyrazine compounds as CK2 inhibitors” (KING FAISAL UNIVERSITY, priority 2023, dated 2024)

Experiments:
MDA-MB-231 (breast) = experiment: In vitro cytotoxic activity (MTT) assay, MDA-MB-231; type: cell-based; settings: Homo sapiens; MDA-MB-231 (breast) cells, exposed for 96 hours; read-out: IC50, 50% inhibition of cell proliferation
Experimental: (§1) Compounds 1a-12a and 1b-12b were screened for their in vitro cytotoxic activity utilizing a 3-(4,5-dimethyl-thiazol-2-yl)-2,5-diphenyltetrazolium bromide (MTT) assay against selected cancer human cell lines consisting of PC3 (prostate), HCT116 (colon), A375 (melanoma), H1299 (lung), MIAPaCa-2 (pancreas), HL60 (leukemia), MCF7 (breast), MDA-MB-231 (breast) (T. Mosmann, J. Immunol. Meth., 1983, 65, 55-63). The cells were cultured at 37° C. in RMPI1640 medium supplemented with 10% fetal bovine serum, 50 IU/mL penicillin, and 50 μg/mL streptomycin in a 5% CO2 incubator. All cells were sub-cultured 3 times/week by trypsinisation. Viable cells were seeded and allowed to adhere for 12 h before a test drug was added in 96-well plates at an initial density of 1.0×10^5 cells/mL. Tumor cell lines were separately exposed to various concentrations of the tested compounds followed by incubation at a temperature of 37° C. during 96 hours inside a medium of fresh RMPI1640. Cells were subsequently incubated at 37° C. using MTT at 0.5 mg/mL during 4 hours. After removal of supernatant, formazan crystals were dissolved in isopropanol and the optical density was measured at 570 nm. CX-4945 was used as a positive control.

PC3 (prostate) = experiment: In vitro cytotoxic activity (MTT) assay, PC3; type: cell-based; settings: Homo sapiens, Prostate cell; PC3 (prostate) cells, exposed for 96 hours; read-out: IC50, 50% inhibition of cell proliferation
Experimental: as §1

MCF7 (breast) = experiment: In vitro cytotoxic activity (MTT) assay, MCF7; type: cell-based; settings: Homo sapiens; MCF7 (breast) cells, exposed for 96 hours; read-out: IC50, 50% inhibition of cell proliferation
Experimental: as §1

HL60 (leukemia) = experiment: In vitro cytotoxic activity (MTT) assay, HL60; type: cell-based; settings: Homo sapiens, HL-60; HL60 (leukemia) cells, exposed for 96 hours; read-out: IC50, 50% inhibition of cell proliferation
Experimental: as §1

A375 (melanoma) = experiment: In vitro cytotoxic activity (MTT) assay, A375; type: cell-based; settings: Homo sapiens, A-375; A375 (melanoma) cells, exposed for 96 hours; read-out: IC50, 50% inhibition of cell proliferation
Experimental: as §1

MIAPaCa-2 (pancreas) = experiment: In vitro cytotoxic activity (MTT) assay, MIAPaCa-2; type: cell-based; settings: Homo sapiens, MIA PaCa-2; MIAPaCa-2 (pancreas) cells, exposed for 96 hours; read-out: IC50, 50% inhibition of cell proliferation
Experimental: as §1

H1299 (lung) = experiment: In vitro cytotoxic activity (MTT) assay, H1299; type: cell-based; settings: Homo sapiens, NCI-H1299; H1299 (lung) cells, exposed for 96 hours; read-out: IC50, 50% inhibition of cell proliferation
Experimental: as §1

HCT116 (colon) = experiment: In vitro cytotoxic activity (MTT) assay, HCT116; type: cell-based; settings: Homo sapiens, HCT-116; HCT116 (colon) cells, exposed for 96 hours; read-out: IC50, 50% inhibition of cell proliferation
Experimental: as §1

[1] = target: T1, recombinant human CK2 (RRBB-holoenzyme) (Homo sapiens, UniProt P68400); experiment: CK2 Kinase Assay (33P-ATP, filter plate); type: biochemical; settings: recombinant human CK2, final ATP concentration 15 μM, 10 min at 30° C.; read-out: protein kinase CK2 activity IC50
T1 construct: purchased Millipore
T1 sequence (P68400 whole entry): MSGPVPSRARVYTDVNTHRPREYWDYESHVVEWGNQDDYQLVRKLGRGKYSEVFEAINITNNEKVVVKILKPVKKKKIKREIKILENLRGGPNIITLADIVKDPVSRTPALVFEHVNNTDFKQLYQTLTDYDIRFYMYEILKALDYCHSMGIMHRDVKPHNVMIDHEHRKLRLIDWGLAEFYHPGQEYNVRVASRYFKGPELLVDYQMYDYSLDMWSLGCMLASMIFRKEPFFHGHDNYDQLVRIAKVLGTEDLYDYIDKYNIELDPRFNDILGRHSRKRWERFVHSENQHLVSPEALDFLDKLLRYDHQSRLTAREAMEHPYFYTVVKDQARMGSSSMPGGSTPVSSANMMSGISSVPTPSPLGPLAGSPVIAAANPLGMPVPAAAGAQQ
T1 sequence (P67870 whole entry partner): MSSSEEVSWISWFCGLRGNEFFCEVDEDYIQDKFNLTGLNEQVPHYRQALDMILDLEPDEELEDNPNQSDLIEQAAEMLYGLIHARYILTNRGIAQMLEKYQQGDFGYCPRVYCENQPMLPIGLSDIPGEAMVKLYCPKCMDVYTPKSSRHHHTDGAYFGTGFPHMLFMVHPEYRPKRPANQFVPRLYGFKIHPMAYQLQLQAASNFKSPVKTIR
Experimental: CK2 Kinase Assay was conducted using the protocol as described in Pierre F. et al; J. Med. Chem. 2011, 54, 635-654. The tested compounds in aqueous solution were added at a volume of 10 μL to a reaction mixture comprising 10 μL of assay dilution buffer (ADB; 20 mM MOPS, pH 7.2, 25 mM β-glycerol phosphate, 5 mM EGTA, 1 mM sodium orthovanadate, and 1 mM dithiothreitol), 10 μL of substrate peptide (RRRDDDSDDD, dissolved in ADB at a concentration of 1 mM), 10 μL of recombinant human CK2 (RRBB-holoenzyme, 25 ng dissolved in ADB; Millipore). Reactions were initiated by the addition of 10 μL of ATP solution (90%75 mMMgCl2, 75 μM ATP (final ATP concentration: 15 μM) dissolved in ADB; 10% [γ-33P] ATP (stock 1mCi/100 μL; 3000 Ci/mmol (Perkin-Elmer) and maintained for 10 min at 30° C. The reactions were quenched with 100 μL of 0.75% phosphoric acid and then transferred to and filtered through a phosphor cellulose filter plate (Millipore). After washing each well five times with 0.75% phosphoric acid, the plate was dried under vacuum for 5 min and, following the addition of 15 μL of scintillation fluid to each well, the residual radioactivity was measured using a Wallac luminescence counter. The IC50 values were derived from eight concentrations of test inhibitors.

| SMILES | IC50 (MDA-MB-231 (breast)) [nM] | IC50 (PC3 (prostate)) [nM] | IC50 (MCF7 (breast)) [nM] | IC50 (HL60 (leukemia)) [nM] | IC50 (A375 (melanoma)) [nM] | IC50 (MIAPaCa-2 (pancreas)) [nM] | IC50 (H1299 (lung)) [nM] | IC50 (HCT116 (colon)) [nM] | IC50 [1] [nM] |
| --- | --- | --- | --- | --- | --- | --- | --- | --- | --- |
| O=C(O)c1ccc2c(c1)nc(Nc1cccc(Cl)c1)c1ccncc12 [CX-4945, Silmitasertib, reference compound] | 6200 | 2000 | 9100 | 3700 | 4100 | 1000 | 2300 | 2300 |  |
| FC(F)(F)c1cccc(Nc2c(-c3ccncn3)nc3cnccn23)c1 [Compound 2b, 2-(pyrimidin-4-yl)-N-(3-(trifluoromethyl)phenyl)imidazo[1,2-a]pyrazin-3-amine] | 4200 | 1400 | 5000 | 4500 | 3500 | 1600 | 1200 | 1500 | 98 |
| FC(F)(F)c1cccc(Nc2c(-c3ccncc3)nc3cnccn23)c1 [Compound 3a, 2-(pyridin-4-yl)-N-(3-(trifluoromethyl)phenyl)imidazo[1,2-a]pyrazin-3-amine] | 4600 | 1200 | 5100 | 4400 | 3400 | 1300 | 1500 | 1700 | 115 |
